Numbers after ± are expanded uncertainties.
Assay: an = ratio of the nth substance listed
Conditions: 101 kPa, Liquid, Vibrating tube method

Structure (SMILES)	mass density (313.15 K, a1 = 0.75) [kg/m3]	mass density (293.15 K, a1 = 0.5) [kg/m3]	mass density (293.15 K, a1 = 0.75) [kg/m3]	mass density (313.15 K, a1 = 0.5) [kg/m3]	mass density (333.15 K, a1 = 0.5) [kg/m3]	mass density (333.15 K, a1 = 0.75) [kg/m3]
Cn1cc[n+](C)c1.[Cl-] [1,3-dimethylimidazolium chloride] + O	1096.1 ± 0.3	–	–	–	–	–
Cn1cc[n+](C)c1.F[B-](F)(F)F [1,3-dimethyl-1H-imidazolium tetrafluoroborate] + O	1098.4 ± 0.3	–	–	–	–	–
COP(=O)([O-])OC.Cn1cc[n+](C)c1 [1,3-dimethylimidazolium dimethylphosphate] + O	1104.1 ± 0.2	1086.4 ± 0.2	1112.3 ± 0.3	1076.8 ± 0.2	1076.6 ± 0.2	1103.3 ± 0.2
